Data taken from ChEMBL document CHEMBL1201862, “PubChem BioAssay data set” (2004).
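Method: 48-hour compound exposure of cells in 96-well plates, five concentrations, linear interpolation of endpoints. The concentration for 50% growth inhibition is given as GI50.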 Calls of active or inactive are those of the source. No stated cut-off is given here; in the data, active = GI50 up to about 1.1 µM and inactive = higher.

Tests used:
Assay in all cases: NCI-60 cell line screen, 48 h
[1] = test system: SNB-75
[2] = test system: LOX IMVI
[3] = test system: OVCAR-8
[4] = test system: A498
[5] = test system: HOP-62
[6] = test system: IGROV-1
[7] = test system: DU-145
[8] = test system: NCI/ADR-RES
[9] = test system: MOLT-4
[10] = test system: MDA-N
[11] = test system: MDA-MB-435
[12] = test system: TK-10
[13] = test system: K562
[14] = test system: NCI-H226
[15] = test system: U-251
[16] = test system: HOP-92
[17] = test system: BT-549
[18] = test system: SF-295
[19] = test system: EKVX
[20] = test system: RPMI-8226
[21] = test system: SK-OV-3
[22] = test system: HCT-116
[23] = test system: CAKI-1
[24] = test system: T47D
[25] = test system: A549
[26] = test system: HCC 2998
[27] = test system: 786-0
[28] = test system: COLO 205
[29] = test system: M14
[30] = test system: UACC-62
[31] = test system: HT-29
[32] = test system: MDA-MB-231
[33] = test system: ACHN
[34] = test system: OVCAR-5
[35] = test system: SK-MEL-28
[36] = test system: KM12
[37] = test system: PC-3
[38] = test system: SK-MEL-5
[39] = test system: HCT-15
[40] = test system: UACC-257
[41] = test system: NCI-H23
[42] = test system: MCF7
[43] = test system: SN12C
[44] = test system: SW-620
[45] = test system: Malme-3M
[46] = test system: CCRF-CEM
[47] = test system: SF-268
[48] = test system: OVCAR-3
[49] = test system: SF-539
[50] = test system: RXF 393
[51] = test system: SK-MEL-2
[52] = test system: HL-60
[53] = test system: OVCAR-4
[54] = test system: UO-31
[55] = test system: SNB-19
[56] = test system: NCI-H522
[57] = test system: NCI-H460

Measured: GI50

O=C1C2=Cc3ccccc3OC2(O)Oc2ccc(O)cc21 (configuration not stated)
inactive: [1] 35.9 µM | [2] > 100 µM | [3] 69.5 µM | [4] > 100 µM | [5] 57.1 µM | [6] 56.4 µM | [7] > 100 µM | [8] 49.9 µM | [9] 62.5 µM | [10] > 100 µM | [11] > 100 µM | [12] > 100 µM | [13] 28.1 µM | [14] > 100 µM | [15] > 100 µM | [16] 46.8 µM | [17] 4.71 µM | [18] > 100 µM | [19] > 100 µM | [20] 23.1 µM | [21] > 100 µM | [22] > 100 µM | [23] 48.4 µM | [24] > 100 µM | [25] 53.6 µM | [26] > 100 µM | [27] > 100 µM | [28] 40.8 µM | [29] > 100 µM | [30] 61.8 µM | [31] > 100 µM | [32] > 100 µM | [33] 15.8 µM | [34] > 100 µM | [35] > 100 µM | [36] > 100 µM | [37] 73.3 µM | [38] 44.1 µM | [40] > 100 µM | [41] 84.1 µM | [42] > 100 µM | [43] > 100 µM | [44] > 100 µM | [45] 91.2 µM | [46] 7.83 µM | [47] > 100 µM | [48] 36.7 µM | [49] > 100 µM | [50] > 100 µM | [51] > 100 µM
38.6 µM: [39]

C[C@]12CC[C@H]3[C@@H](CCC4=C/C(=N/OCCN5CCCCC5)CC[C@@]43C)[C@@H]1CC[C@@H]2O
inactive: [1] 7.26 µM | [2] 11 µM | [3] 24.1 µM | [5] 14.1 µM | [6] 27.4 µM | [7] 21.9 µM | [8] 16.7 µM | [9] 5.81 µM | [10] 15 µM | [52] 2.99 µM | [11] 7.66 µM | [12] 14.3 µM | [13] 2.75 µM | [14] 4.29 µM | [15] 13.3 µM | [17] 15.4 µM | [18] 13.8 µM | [19] 27.3 µM | [20] 10.7 µM | [21] 15.2 µM | [22] 19.3 µM | [23] 28.8 µM | [24] 28 µM | [25] 14.4 µM | [53] 13.9 µM | [26] 14.4 µM | [54] 12.2 µM | [27] 19.3 µM | [28] 16.1 µM | [29] 8.02 µM | [30] > 10 µM | [31] 1.37 µM | [32] 22.2 µM | [33] 20.7 µM | [55] 5.68 µM | [34] 16.1 µM | [35] 13.6 µM | [56] 12.2 µM | [36] 10.2 µM | [37] 16.2 µM | [38] 8.63 µM | [40] 17.2 µM | [41] 13.7 µM | [42] 12 µM | [43] 17.4 µM | [44] 13.9 µM | [45] 15 µM | [46] 9.31 µM | [48] 16.3 µM | [50] 11.8 µM | [51] 14.6 µM
8.04 µM: [39]

[N-]=[N+]=Nc1ccc2c(c1)Sc1ccccc1N2CCCCN1CCN(Cc2ccc(C(=O)c3ccc(CSCC(N)C(=O)O)cc3)cc2)CC1 (configuration not stated)
14.2 µM: [39]
inactive: [2] 10.6 µM | [4] 18.5 µM | [5] 23.9 µM | [6] 13.5 µM | [7] 21.3 µM | [9] 15.3 µM | [10] 12.8 µM | [52] 6.55 µM | [11] 1.59 µM | [12] 56.2 µM | [13] 12.5 µM | [14] 13.2 µM | [15] 11.1 µM | [16] 9.84 µM | [17] 18 µM | [18] 18.2 µM | [19] 52.8 µM | [20] 13.2 µM | [21] > 100 µM | [22] 15.2 µM | [23] 20.7 µM | [53] > 100 µM | [26] 24.9 µM | [54] 37.4 µM | [27] 12.1 µM | [28] 13.6 µM | [30] 11.3 µM | [31] 14 µM | [32] 13.6 µM | [33] 31.6 µM | [34] 52.4 µM | [35] 2.01 µM | [56] 12.5 µM | [36] 1.57 µM | [37] 43.5 µM | [38] 13.8 µM | [57] 34.8 µM | [40] 22.8 µM | [41] 31.3 µM | [42] 16.4 µM | [43] 31.3 µM | [44] 1.87 µM | [45] > 10 µM | [46] 14.3 µM | [47] 27.5 µM | [48] 26.9 µM | [50] 46.7 µM | [51] 19.3 µM
